In assay [1] the target is T1, human MC-4 melanocortin receptor (Homo sapiens, UniProt P32245). Put plainly: cell-based or functional assay.
Target sequence in this assay (P32245 other isoform, or with tags, fused parts or gaps): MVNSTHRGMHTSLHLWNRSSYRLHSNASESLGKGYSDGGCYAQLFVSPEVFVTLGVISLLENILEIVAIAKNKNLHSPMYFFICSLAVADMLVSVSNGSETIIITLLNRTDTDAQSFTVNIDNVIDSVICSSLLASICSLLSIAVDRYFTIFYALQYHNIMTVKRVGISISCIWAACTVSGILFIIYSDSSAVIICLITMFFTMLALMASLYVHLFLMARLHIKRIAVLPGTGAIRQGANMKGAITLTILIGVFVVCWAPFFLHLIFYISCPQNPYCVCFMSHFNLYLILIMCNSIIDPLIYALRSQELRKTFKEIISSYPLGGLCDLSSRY
Assay [2] deals with T1, human MC-4 melanocortin receptor. Put plainly: intracellular cAMP accumulation (adenylate cyclase coupling) in transfected human 293 cells. The class given is cell-based. Also noted: expressed in transfected cells. The note with it: 293 cells expressing human MC-4 receptor, 45 min at 37° C. A general note: cAMP levels reflect the balance of adenylyl cyclase and phosphodiesterase activity.
Target sequence in this assay (P32245 whole entry): as the sequence (P32245 other isoform, or with tags, fused parts or gaps) above, with A42E, E65V, I103V, R109S, S169I, L215M, S318C, S319C counted along it
Procedure: Melanocortin receptor coupling to G-proteins in cells expressing the MC-4 melanocortin receptor was used analyze expression of the receptor in cell colonies transfected with the expression vectors described herein as follows. Cells (˜1×10^6) were plated in 6-well dishes, washed once with DMEM containing 1% bovine serum albumin (BSA) and 0.5mM IBMX (a phosphodiesterase inhibitor), then incubated for 45 minutes at 37° C. with varying concentrations of the melanotropic peptides. Following hormone treatment, the cells were washed twice with phosphate buffered saline and intracellular cAMP extracted by lysing the cells with 1 ml of 60% ethanol.

In assay [3] the test system is LPS-induced anorexia and fever in rats. The following applies: central administration; cited from earlier work.
The target of assay [4] is T1, human MC-4 melanocortin receptor. Put plainly: antagonism of agonist-induced cAMP elevation, Schild analysis. The assay is classed as cell-based. Details: expressed in transfected cells. The following applies: agouti peptide approx. 60% pure; results not shown.
Target sequence in this assay (P32245 whole entry): as the sequence (P32245 other isoform, or with tags, fused parts or gaps) above, with A42E, E65V, I103V, R109S, S169I, L215M, S318C, S319C counted along it

Molecule “γ2-MSH (from UniProt P01189 77-88) (peptide)” returned an Ec50 (adenylate cyclase activity, intracellular cAMP accumulation in transfected 293 cells) in assay [1] of more than 100 nM.
Regarding “ACTH4-10 (from UniProt P01189) (peptide)”, the Ec50 (adenylate cyclase activity, intracellular cAMP accumulation in transfected 293 cells) in assay [1] was more than 100 nM.
Turning to `CSCC[C@H](N)C(=O)N[C@@H](CCC(=O)O)C(=O)N[C@@H](Cc1c[nH]cn1)C(=O)N[C@@H](Cc1ccccc1)C(=O)N[C@@H](CCCNC(=N)N)C(=O)N[C@@H](Cc1c[nH]c2ccccc12)C(=O)NCC(=O)O` [ACTH4-10], the EC50 – broadly, the midpoint of the concentration-response curve – in assay [2] was more than 100 nM.
As to “α-melanocyte stimulating hormone [α-MSH]”, in assay [3], the “effect on LPS-induced fever” value was “reduced” and the “effect on LPS-induced suppression of food intake” value is given as “significant potentiation of the suppressive effects of LPS on food intake”.
“ACTH1-39 (from UniProt P01189 138-176) (peptide)” showed an Ec50 (adenylate cyclase activity, intracellular cAMP accumulation in transfected 293 cells) in assay [1] of 0.68 nM.
Turning to “Ac-Nle^4-cyclo(Asp^5, D-Nal(2)^7, Lys^10) αMSH-(4-10)-amide [SHU9119]”, in assay [3], the “effect on LPS-induced fever” value is reported as “increased” and the “effect on LPS-induced suppression of food intake” value was “reversal of LPS-induced anorexia”.

B1: agouti: murine agouti peptide produced using a baculovirus system, approximately 60% pure (protein)
chain: HLALEETLGDDRSLRSNSSMNSLDFSSVSIVALNKKSKKISRKEAEKRKRSSKKKASMKKVARPPPPSPCVATRDSCKPPAPACCDPCASCQCRFFGSACTCRVLNPNC
Turning to B1, the “competition of α-MSH activation of human MC-4 melanocortin receptors” value in assay [4] is reported as “Specific competition”.

The values above are taken from US20030113263A1, “Methods and reagents for using mammalian melanocortin receptor antagonists to treat cachexia” (Oregon Health and Sciences University, a non-profit …, priority 2001, published 2003).
